pIC50: −log10 of the molar value. “And” between values parts separate entries of the source, which are not always exact repeats. Identical values can stand only once. Like-named read-outs stand apart in the source and are kept apart here.
Assays:
Format in all cases: cell-based
MDA-MB-231 cells = experiment: Cell death manner assay (MTT, co-incubation with cell death inhibitors); conditions: Fer-1 / NAC experiment; 15ai 10 μM, Fer-1 10 μM, NAC 5 mM, 72 h; single replicates
Description: [The source words this procedure for another cell line and reports this cell line under the same test.] To investigate the mechanism of 15ai in cancer cell proliferation inhibition, the manners of cell death were analyzed. The cell apoptosis inhibitor Z-VAD-FMK (Z-VAD), cell necrosis inhibitor Necrostatin-1 (Necro-1), ferroptosis inhibitor Ferrostatin-1 (Fer-1), and ROS inhibitor N-acetylcysteine (NAC) were purchased and stored at −20 °C. A375 cells were seeded with a density of 5000 cells/100 µL/well into 96 well plates. After 12 h, 15ai was added at different concentrations. Following that 10 µM Z-VAD, 10 µM Nerco-1, 10 µM Fer-1, and 5 mM NAC were added and co-incubated with 15ai, respectively, for 72 h. Then, 20 µL MTT solution (5 mg/mL) was added and incubated at 37 °C for an additional 4 h. Then, the supernatant was discarded, and 200 μL DMSO was added to dissolve the precipitate. After 15 min, the absorbance (OD490) was read on a microplate reader (SpectraMax i3x, Austria). In all experiments, three replicate wells were used for each drug concentration. Each assay was performed at least three times.

MIA PaCa-2 = experiment: MTT cell viability assay, MIA PaCa-2
Description: (§1) All cell lines were cultured at 37 °C with 5% CO2 in a humidified incubator. HeLa cells were grown in MEM (Gibco) supplemented with 10% fetal bovine serum (FBS, Hyclone) and 1% penicillin/streptomycin (Gibco). MIA PaCa-2, MDA-MB-231, A549, MCF-7, A375 and BEAS-2B cells were grown in DMEM (Gibco) supplemented with 10% FBS and 1% penicillin/streptomycin. CT26, and HCT116 cells were grown in RPMI-1640 supplemented with 10% FBS and 1% penicillin/streptomycin. All cell lines were purchased from the National Collection of Authenticated Cell Cultures (China).
(§2) The antiproliferative activities of the prepared compounds against tested cell lines were evaluated using a standard (MTT)-based colorimetric assay. Cells were plated at a density of 3000 cells/well in 96-well plates and allowed to adhere overnight. Then cells were treated with varying concentrations of synthesized compounds for 72 h. At the end of treatment, 20 μL of thiazolyl blue tetrazolium bromide (MTT) solution (5 mg/mL) was added to each well. Cells were incubated for an additional 4 h at 37 °C and then the medium was removed and replaced with 200 μL of DMSO. The absorbance (OD490) was read on a microplate reader (SpectraMax i3x, Molecular Devices, US). In all experiments, three replicate wells were used for each drug concentration. Each assay was performed at least three times. The IC50 values were calculated by GraphPad Prism 9, which were the mean values derived from three independent experiments.

MDA-MB-231 = experiment: MTT cell viability assay, MDA-MB-231
Description: as §1, §2

Hela = experiment: MTT cell viability assay, Hela
Description: as §1, §2

A549 = experiment: MTT cell viability assay, A549
Description: as §1, §2

MCF-7 = experiment: MTT cell viability assay, MCF-7
Description: as §1, §2

CT26 = experiment: MTT cell viability assay, CT26
Description: as §1, §2

HCT 116 = experiment: MTT cell viability assay, HCT 116
Description: as §1, §2

A375 = experiment: MTT cell viability assay, A375
Description: as §1, §2

[1] = MTT cytotoxicity towards normal cells, BEAS-2B; conditions: human
Description: as §1, §2

cancer cell lines = experiment: In vitro cancer cell assays (antiproliferation, cell line not given); conditions: result in words
Description: as §1, §2

## CC(=O)N[C@@H](CS)C(=O)O [NAC, N-acetylcysteine, reference compound]
MDA-MB-231 cells
  Percentage of viability: 108.212% and 96.8182% and 102.046%

## CC=C1CN2C3CC1C(C=O)C2Cc1c3[nH]c2ccccc12 (stereo not shown) [vellosimine (4), vellosimine]
MIA PaCa-2; Homo sapiens, MIA PaCa-2, 72 h, MTT, 72 h, mean of at least three independent experiments, read-out: IC50 MIA PaCa-2
  pIC50: 4.49
MIA PaCa-2; Homo sapiens, MIA PaCa-2, source data sheet, single values of three experiments, read-out: MTT IC50 MIA PaCa-2
  pIC50: 4.44
MIA PaCa-2; source data sheet, single values of three experiments, read-out: MTT IC50 MIA PaCa-2
  pIC50: 4.53 and 4.49
MDA-MB-231; Homo sapiens, MDA-MB-231, 72 h, MTT, 72 h, mean of at least three independent experiments, read-out: IC50 MDA-MB-231
  pIC50: 4.67
MDA-MB-231; Homo sapiens, MDA-MB-231, source data sheet, single values of three experiments, read-out: MTT IC50 MDA-MB-231
  pIC50: 4.64
MDA-MB-231; source data sheet, single values of three experiments, read-out: MTT IC50 MDA-MB-231
  pIC50: 4.74 and 4.65
Hela; Homo sapiens, HeLa, 72 h, MTT, 72 h, mean of at least three independent experiments, read-out: IC50 Hela
  pIC50: 4.62
Hela; Homo sapiens, HeLa, source data sheet, single values of three experiments, read-out: MTT IC50 Hela
  pIC50: 4.56
Hela; source data sheet, single values of three experiments, read-out: MTT IC50 Hela
  pIC50: 4.65
A549; Homo sapiens, A549, 72 h, MTT, 72 h, mean of at least three independent experiments, read-out: IC50 A549
  pIC50: 4.63
A549; Homo sapiens, A549, source data sheet, single values of three experiments, read-out: MTT IC50 A549
  pIC50: 4.65
A549; source data sheet, single values of three experiments, read-out: MTT IC50 A549
  pIC50: 4.58 and 4.67
MCF-7; Homo sapiens, MCF7, 72 h, MTT, 72 h, mean of at least three independent experiments, read-out: IC50 MCF-7
  pIC50: 4.41
MCF-7; Homo sapiens, MCF7, source data sheet, single values of three experiments, read-out: MTT IC50 MCF-7
  pIC50: 4.41
MCF-7; source data sheet, single values of three experiments, read-out: MTT IC50 MCF-7
  pIC50: 4.37 and 4.44
CT26; Mus musculus, CT26, 72 h, MTT, 72 h, mean of at least three independent experiments, read-out: IC50 CT26
  pIC50: 4.69
CT26; Mus musculus, CT26, source data sheet, single values of three experiments, read-out: MTT IC50 CT-26
  pIC50: 4.72
CT26; source data sheet, single values of three experiments, read-out: MTT IC50 CT-26
  pIC50: 4.63 and 4.73
HCT 116; Homo sapiens, HCT-116, 72 h, MTT, 72 h, mean of at least three independent experiments, read-out: IC50 HCT 116
  pIC50: 4.56
HCT 116; Homo sapiens, HCT-116, source data sheet, single values of three experiments, read-out: MTT IC50 HCT-116
  pIC50: 4.53
HCT 116; source data sheet, single values of three experiments, read-out: MTT IC50 HCT-116
  pIC50: 4.60 and 4.56
A375; Homo sapiens, A-375, 72 h, MTT, 72 h, mean of at least three independent experiments, read-out: IC50 A375
  pIC50: 4.54
A375; Homo sapiens, A-375, source data sheet, single values of three experiments, read-out: MTT IC50 A375
  pIC50: 4.49
A375; source data sheet, single values of three experiments, read-out: MTT IC50 A375
  pIC50: 4.58 and 4.56
[1]; BEAS-2B lung epithelial cells (normal cells), source data sheet, single values of three experiments
  IC50 at 72 h: > 100 µM
[1]; BEAS-2B lung epithelial cells, MTT, 72 h, cytotoxicity towards normal cells, mean of at least three independent experiments
  CC50 at 72 h: > 100 µM
Cancer cell lines
  antiproliferation activity in the in vitro cancer cell assays: moderate antiproliferation activity

Reference: PMC10492809, “A Bischler-Napieralski and homo-Mannich sequence enables diversified syntheses of sarpagine alkaloids and analogues” (Nature Communications, 2023)
